Results taken from patent US7638509B2, “Diene compounds and formulations” (priority 2003, dated 2009).
Numbering of substitutions follows the chain as printed.

Columns and labels:
AR = target: T1, AR (Homo sapiens, UniProt P10275, T878A); test: Competitive [3H]-R1881 ligand binding assay, LNCaP whole cell extracts; conditions: 1 nM [3H]-R1881, unlabeled ligand 1-10,000 nM, relative to DHT
T1 construct: LNCaP without transfection; endogenous in cells; host or cells: LNCaP
T1 sequence (P10275 1-920 T878A): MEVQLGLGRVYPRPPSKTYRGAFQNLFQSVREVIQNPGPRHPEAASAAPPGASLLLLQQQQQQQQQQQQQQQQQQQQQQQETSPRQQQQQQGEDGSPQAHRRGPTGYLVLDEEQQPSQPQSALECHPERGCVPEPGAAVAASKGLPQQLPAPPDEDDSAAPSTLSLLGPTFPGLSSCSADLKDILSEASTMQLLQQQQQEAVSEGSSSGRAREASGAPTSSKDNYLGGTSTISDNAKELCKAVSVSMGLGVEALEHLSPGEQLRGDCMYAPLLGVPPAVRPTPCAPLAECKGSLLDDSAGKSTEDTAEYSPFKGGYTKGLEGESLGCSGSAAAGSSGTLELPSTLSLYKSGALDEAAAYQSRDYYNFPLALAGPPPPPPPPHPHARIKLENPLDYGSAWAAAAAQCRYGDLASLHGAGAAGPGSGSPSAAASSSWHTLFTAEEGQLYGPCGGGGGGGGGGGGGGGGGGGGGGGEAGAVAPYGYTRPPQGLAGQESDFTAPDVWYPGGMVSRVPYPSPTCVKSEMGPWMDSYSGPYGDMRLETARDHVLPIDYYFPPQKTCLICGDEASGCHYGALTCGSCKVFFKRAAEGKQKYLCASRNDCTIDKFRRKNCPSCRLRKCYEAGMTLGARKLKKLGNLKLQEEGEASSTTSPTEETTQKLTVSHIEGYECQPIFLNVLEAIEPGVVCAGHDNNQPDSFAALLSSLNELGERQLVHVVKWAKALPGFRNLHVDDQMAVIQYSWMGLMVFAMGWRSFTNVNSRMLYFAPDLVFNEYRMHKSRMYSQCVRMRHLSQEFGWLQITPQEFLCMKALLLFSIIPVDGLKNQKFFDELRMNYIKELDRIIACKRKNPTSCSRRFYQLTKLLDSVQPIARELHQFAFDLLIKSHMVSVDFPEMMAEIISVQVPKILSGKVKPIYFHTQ
Description: Ligand Binding Assay. Whole cell extracts from COS-1 with transient transfection of pSG5-AR, or LNCaP without transfection, were incubated for 2 h at 37° C. with 1 nM [^3H]-synthetic androgen methyltrienolone (R1881) in the presence and absence of increasing concentrations (1-10,000 nM) of unlabeled ligands. Then, hydroxyapatite (Bio-Rad) was added and stirred for 15 min at 4° C. After centrifugation and washing, radioactivity was determined by scintillation counting.
Clinically available antiandrogens have an affinity for the AR, allowing a competition with androgens for binding. To determine whether ADEK has this common feature of AR antagonists, the competitive androgen binding assay was performed.

wild-type AR = target: T2, wild-type AR (Homo sapiens, UniProt P10275); test: Anti-DHT activity on AR transcription, MMTV-Luc reporter in PC-3 cells transfected with AR; assay type: cell-based; set-up: expressed in transfected cells; host or cells: PC-3; conditions: PC-3, 1 nM DHT, compound at 0.01, 0.1 or 1 μM, dose-dependent
T2 sequence (P10275 1-920): T1 sequence (P10275 1-920 T878A) with A878T
Description: Cell Culture, Transfection, and Reporter Gene Assay. The human prostate cancer cell lines, LNCaP, PC-3, and DU145, and non-prostate cancer cell line COS-1 were maintained in RPMI or Dulbecco's modified Eagle's medium (DMEM) (Life Technologies) supplemented with 10% fetal bovine serum (FBS). Transfections and luciferase (Luc) assays were performed as previously described (Miyamoto, H., Yeh, S., Wilding, G. & Chang, C. (1998) Proc. Natl. Acad. Sci. USA 95, 7379-7384; Miyamoto, H., Rahman, M., Takatera, H., Kang, H.-Y., Yeh, S., Chang, H.-C., Nishimura, K., Fujimoto, N. & Chang, C. (2002) J. Biol. Chem. 277, 4609-4617). Briefly, cells seeded to reach a density of 50-60% confluence in 12 well tissue culture plates were transfected with 1.5 μg of DNA according to “SuperFect transfection” instructions (Qiagen). After 2-3 h incubation, cells were treated with medium supplemented with charcoal-stripped FBS containing either ethanol or ligands for 24 h. The cells were then harvested and whole cell extracts were used for Luc assay. The Luc activity was determined using a Dual-Luciferase Reporter Assay System (Promega) and luminometer.
To accomplish these studies, PC-3 cells were transfected with the wild-type AR expression plasmid pSG5-AR and MMTV-Luc. […] The Luc activity was measured relative to that of ethanol treatment (set as 1-fold). Values from the mean±SD of at least three determinations were used. PC-3 cells were transfected with the pSG5-AR and MMTV-Luc. […] Values from the mean±SD of at least three determinations were obtained.

CC(=O)O[C@H]1C=C[C@@]2(C)C(=CC[C@@H]3[C@@H]2CC[C@@]2(C)[C@H]3CCC23OCCO3)C1 [ADEK, 3β-acetoxy-17,17-ethylenedioxyandrosta-1,5-diene] was tested, and the “RBA in LNCaP” value (AR) was 11.1 and the “DHT-induced AR transactivation suppressed to (Luc activity relative to DHT = 100%)” value (wild-type AR) was 30%.
